Target: T1, iPLA2β (Cricetulus griseus, UniProt A0A3L7I2I8)
T1 construct: (His)6; made in house; host or cells: Sf9 insect cells (baculovirus)
T1 sequence (A0A3L7I2I8 1-752 isoform A0A3L7I2I8-2): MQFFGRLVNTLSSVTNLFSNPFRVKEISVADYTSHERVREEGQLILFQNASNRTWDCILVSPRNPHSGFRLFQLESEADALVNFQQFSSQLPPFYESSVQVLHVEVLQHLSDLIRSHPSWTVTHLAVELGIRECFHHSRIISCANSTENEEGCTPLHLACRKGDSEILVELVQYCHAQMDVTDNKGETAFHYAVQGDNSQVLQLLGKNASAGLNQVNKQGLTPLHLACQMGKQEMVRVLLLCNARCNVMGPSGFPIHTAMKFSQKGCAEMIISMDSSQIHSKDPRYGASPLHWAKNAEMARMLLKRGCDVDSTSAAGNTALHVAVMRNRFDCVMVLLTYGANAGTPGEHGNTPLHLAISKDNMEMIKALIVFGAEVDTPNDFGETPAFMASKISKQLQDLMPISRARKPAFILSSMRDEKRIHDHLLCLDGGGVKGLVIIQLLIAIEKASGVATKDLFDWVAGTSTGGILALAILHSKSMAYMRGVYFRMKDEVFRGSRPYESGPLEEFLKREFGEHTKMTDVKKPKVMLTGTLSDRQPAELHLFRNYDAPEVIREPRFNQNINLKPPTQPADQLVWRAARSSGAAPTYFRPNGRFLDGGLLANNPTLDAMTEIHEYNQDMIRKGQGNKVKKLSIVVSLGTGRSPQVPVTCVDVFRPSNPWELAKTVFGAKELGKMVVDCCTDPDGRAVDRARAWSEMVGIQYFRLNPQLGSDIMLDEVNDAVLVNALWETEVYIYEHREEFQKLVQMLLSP
Assay: Covalent acylation (autoacylation) of iPLA2β with [14C]-long chain acyl-CoAs
Format: biochemical
Experimental: FIG. 5—Equivalent amounts of the indicated [1-^14C]-acyl-CoA guests (5 mol %) were incorporated into host POPC (100 μM) vesicles and incubated for 1 hr at 37° C. with equal amounts of either wild-type (WT) iPLA2β(His)6 (peptide disclosed as SEQ ID NO: 4), S465A iPLA2β(His)6 (peptide disclosed as SEQ ID NO: 4), or BEL-pretreated WT iPLA2β(His)6 (peptide disclosed as SEQ ID NO: 4) enzyme as described in Experimental Procedures. Samples were resolved by SDS-PAGE (10% gel), fixed, and dried before visualization by autoradiography.
FIG. 6—Purified iPLA2β(His)6 (peptide disclosed as SEQ ID NO: 4) (2 μM) was incubated with the indicated concentrations of [1-^14C]-oleoyl-CoA present as guest in host POPC (100 μM) vesicles for 1 hr at 37° C. Samples were electrophoresed in parallel with standard amounts (0.5-10 nCi) of [^14C]-BSA of known activity (not shown). The fixed and dried gel was exposed to film and the resultant signals from the [^14C]-BSA were utilized to generate a standard curve utilizing ID software from a Kodak Imagestation to determine the incorporation of [1-^14C]-oleate into iPLA2β.
FIG. 7—Purified iPLA2β(His)6 (peptide disclosed as SEQ ID NO: 4) was incubated with [1-^14C]-oleoyl CoA (10 mol %) incorporated as guest in host POPC vesicles. N-ethylmaleimide and iodoacetamide samples were pretreated with 5 mM of either reagent for 5 min at 30° C. before addition of [1-^14C]-oleoyl-CoA. Samples were incubated with 1 N HCl, 1 N NaOH, or 2 N neutral hydroxylamine for 1 hr at 30° C. as indicated. All samples, except lane 1, were precipitated with CHCl3/MeOH and washed with 70% acetone before SDS-PAGE and autoradiography as described in Experimental Procedures.
FIG. 10—Purified iPLA2β(His)6 (peptide disclosed as SEQ ID NO: 4) was incubated with [1-^14C]-oleoyl CoA (10 mol %) incorporated as guest in host POPC vesicles in the presence of EGTA (5 mM), Ca^2+ (1 mM), CaM (3 μg), or Ca^2+-CaM for 1 h at 37° C. Samples were resolved by SDS-PAGE and the gel was soaked in Amplify fluorographic reagent, dried, and exposed to film as described in Experimental Procedures.
Covalent Modification of […] with [^14C]-long chain Acyl CoAs—Purified recombinant iPLA2β(His)6 (peptide disclosed as SEQ ID NO: 4) was incubated with POPC vesicles containing 10 mol % [1-^14C]-acyl-CoA for 1 h at 37° C. […] Chloroform/methanol precipitation of some samples was performed as described (66) utilizing 15 μg of bovine serum albumin as carrier. In tests to examine the nature of the covalent linkage between oleic acid and iPLA2β, acid (HCl), base (NaOH), and hydroxylamine were added to the indicated concentrations and the samples were incubated at 30° C. for 1 h. Bovine serum albumin (15 μg) and SDS-PAGE loading buffer were then added to each sample prior to dialysis against 50 mM Tris-HCl, pH 6.8 containing 10% glycerol and 1% SDS for 4 h. Samples were electrophoresed by SDS-PAGE, fixed (40% methanol containing 10% acetic acid), stained with Coomassie Blue R-250, incubated in Amplify fluorographic reagent, dried, and exposed to Kodak Biomax MR film for 2-5 days at −80° C.

Structure (SMILES): CCCCCCCC/C=C\CCCCCCCC(=O)SCCNC(=O)CCNC(=O)[C@H](O)C(C)(C)COP(=O)(O)OP(=O)(O)OC[C@H]1O[C@@H](n2cnc3c(N)ncnc32)[C@H](O)[C@@H]1OP(=O)(O)O [oleoyl-CoA]
- [1-14C]-oleic acid incorporated per mole of iPLA2β (POPC vesicles, up to 5-fold molar excess of oleoyl-CoA, FIG. 6): approximately 1 mole
- radiolabeling of iPLA2β, fold greater than saturated counterparts (wild-type iPLA2β, FIG. 5): 10-100 fold

From patent publication US8148097B2, “Screening method for identification of compounds with calcium-independent phospholipase A2β (iPLA2β) modulating activity” (Washington University, priority 2005, dated 2012)
